Data taken from PubChem BioAssay AID449762 (Southern Research Specialized Biocontainment Screening …, 2010).
pIC50: −log10 of the molar value. Records with an inconclusive call do not appear.

Tested on: M. tuberculosis H37Rv growth inhibition, 7H9 media
Assay: M. tuberculosis growth inhibition, HTS (AID 449762);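 note: bacterial growth assessed after seven days of incubation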
Conditions: for IC90: measured here: IC90 growth inhibition

| SMILES | pIC50 | IC90 [µM] |
| --- | --- | --- |
| CCC(C)(C)c1ccc(OCCCC[n+]2ccc(C)cc2)c(C(C)(C)CC)c1 | 4.99 | 15 |
| CCCc1cc(C(N)=S)ccn1 | 5.18 | > 100 |
| Cn1c(=O)c(C(=O)NNC(=O)c2cccc(Cl)c2)c(O)c2ccccc21 | 6.10 | 1.28 |
| c1ccc(Cn2c3ccccc3c3nnc(SCCN4CCCCC4)nc32)cc1 | 4.67 | 34.5 |
| O=C1C2C(c3ccccc3)(C(=O)N1c1ccc(Cl)cc1)C2(c1ccccc1)c1ccccc1 (centres undefined) | 4.94 | 12.4 |
| OCC(O)/C=N/Nc1nc(Nc2ccccc2)nc(Nc2ccccc2)n1 (centres undefined) | 5.02 | 12.5 |
| S=C(Nc1ccc(Cl)cc1)Nc1cccc2cnccc12 | 5.35 | 5.24 |
| COc1cc(OC)c(OC)cc1CCC(C)NCCC(c1ccccc1)c1ccccc1 (centres undefined) | 4.65 | 25 |
| COc1ccc2c3n(nc2c1)CCN=C3c1cc(Cl)c(N)c(Cl)c1 | 4.89 | 31.9 |
| COc1ccc(-c2cn3cc([N+](=O)[O-])ccc3n2)cc1OC | 4.75 | > 100 |
| N#Cc1cccc(NC(=O)N2CCC(c3nc4c(nnn4Cc4cccc(Cl)c4)c(=O)[nH]3)CC2)c1 | 4.91 | 13.5 |
| NC(N)=Nc1nc(-c2ccccc2)c2ccccc2n1 | 4.17 | 87.9 |
| Cc1ccccc1Cn1cc(NC(=O)c2noc(C(C)C)c2[N+](=O)[O-])cn1 | 5.29 | 8.72 |
| CSc1ccc(CNC(=O)c2ccc(NC(=O)C3=CSCCO3)cc2)cc1 | 6.18 | > 100 |
| CCn1c(SCC(=O)OC2CCCCC2)nc2ccccc2c1=O | 4.66 | 37.7 |
| CCCn1nnnc1NC(=O)c1ccc(C)cc1Cl | 5.10 | 19.4 |
| O=[N+]([O-])c1cc(-c2ncccn2)c([N+](=O)[O-])s1 | 4.89 | 32.5 |
| Nc1c(-c2ccccn2)cnn1-c1nc(-c2ccc(F)cc2)cs1 | 4.90 | > 100 |
| Cc1c(CN(C)C)c2c(n1Cc1ccccc1)C(=O)c1ccc(Br)cc1-2 | 4.76 | 22 |
| CCOC(=O)c1ccc(-n2c(CCC(=O)O)ccc2-c2cccs2)cc1 | 5.04 | 14 |
| CN(C(=O)COC(=O)c1ccc([N+](=O)[O-])cc1Cl)C1CCCCC1 | 4.89 | 65.6 |
| CN(C)c1ccc(CNC2C3CC4CC(C3)CC2C4)cc1 (centres undefined) | 4.93 | 13 |
| O=C1Nc2cc(C(=O)NCCCN3CCOCC3)ccc2S/C1=C/c1cccc(Cl)c1 | 4.58 | 41 |

| SMILES | pIC50 | IC90 [µM] |
| --- | --- | --- |
| CCOC(=O)CSc1nsc(SCC(=O)OCC)c1C#N | 4.92 | 13.6 |
| C=CCNCC(=O)N1N=C(c2ccc3ccccc3c2)CC1c1ccc(OC)cc1 (centres undefined) | 4.66 | 24.3 |
| COc1ccc(-c2cc3n(n2)CCc2nc4ccccc4n2-3)cc1 | 5.97 | 5.92 |
| Cc1ccc(NC(=O)c2ccc(CSc3nnc(C)s3)cc2)c(C)c1 | 4.76 | > 25 |
| COc1ccc(/C=N/Nc2cc(C)nc3ccc(OC)cc23)c(OC)c1 | 5.03 | 11.9 |
| COC(=O)c1c(NC(=S)NN2CCN(C)CC2)sc2c1CCC(C)C2 (centres undefined) | 4.64 | 25.9 |
| O=C(NC1CCCCCC1)c1ccccc1-c1ccccc1 | 4.74 | > 100 |
| Cc1ccc(F)cc1CNC(=O)c1cc(COc2ccc3ncccc3c2)on1 | 4.53 | > 100 |
| C/C(=C1/C(=O)N(c2ccc([N+](=O)[O-])cc2)N=C1c1ccccc1)N(C)C | 4.66 | 31.4 |
| O=C(C[n+]1ccc(C(=O)c2ccccc2)cc1)Nc1ccc(C(F)(F)F)cc1 | 4.67 | 23.7 |
| COc1cc(C)c(/C=C/C(C)=C/C=C/C(C)=C/C(=O)O)c(C)c1C | 5.81 | 6.76 |
| Clc1ccc2c(c1)CCc1cccnc1C2=C1CCNCC1 | 4.57 | 31.3 |
| Fc1cccc(CCN2CCNC[C@H]2Cc2cccc3ccccc23)c1 | 4.44 | 43.2 |
| O=c1c(-c2cnn(-c3ccccc3)c2)coc2cc(O)ccc12 | 4.92 | > 100 |
| CCn1c(C)nc2cc(C(=O)OC(C(F)(F)C(F)F)C(F)(F)C(F)F)ccc21 | 4.75 | 26.1 |
| C/C(CC(=O)Nc1ccc(C)c(Cl)c1)=N\NC(=O)Cc1cnc(N)s1 | – | > 100 |
| CCN(CC)c1nc(NN)nc(Nc2ccc(C)c(Cl)c2)n1 | 5.55 | 6.27 |
| CCOc1ccc(C(=O)CCN2CCCCCC2)cc1 | 4.93 | 17.4 |
| O=C(/C=C/c1ccccc1)N1CCN(CCN2C(=O)c3cccc4cccc(c34)C2=O)CC1 | 5.71 | 3.87 |
| O=C(/C=C/c1cccnc1)c1cccc(O)c1 | 5.19 | 14.8 |
| COc1cc(C2c3cc4c(cc3C(OC3OC5COC(c6cccs6)OC5C(O)C3O)C3COC(=O)C23)OCO4)cc(OC)c1O (centres undefined) | 4.88 | 29.5 |
| Cc1cc(C)n(C(=O)c2ccc([N+](=O)[O-])cc2[N+](=O)[O-])n1 | 5.34 | 8.45 |
